In patent publication US11208400B2, “Substituted 6-(1H-pyrazol-1-yl)pyrimidin-4-amine derivatives and uses thereof” (Bayer Aktiengesellschaft, priority 2016, dated 2021):
Counter-ions that a name gives are not always drawn.

These compounds were tested against T1, human Npt2a (Homo sapiens, UniProt Q06495) (assay: Npt2a activity cell based assay, membrane potential dye, CHO T-REx hNpt2a cells). Conditions: doxycycline-induced, depolarization by sodium phosphate influx, average or median values if tested more than once.
T1 construct: expressed in transfected cells
T1 sequence (Q06495 1-639): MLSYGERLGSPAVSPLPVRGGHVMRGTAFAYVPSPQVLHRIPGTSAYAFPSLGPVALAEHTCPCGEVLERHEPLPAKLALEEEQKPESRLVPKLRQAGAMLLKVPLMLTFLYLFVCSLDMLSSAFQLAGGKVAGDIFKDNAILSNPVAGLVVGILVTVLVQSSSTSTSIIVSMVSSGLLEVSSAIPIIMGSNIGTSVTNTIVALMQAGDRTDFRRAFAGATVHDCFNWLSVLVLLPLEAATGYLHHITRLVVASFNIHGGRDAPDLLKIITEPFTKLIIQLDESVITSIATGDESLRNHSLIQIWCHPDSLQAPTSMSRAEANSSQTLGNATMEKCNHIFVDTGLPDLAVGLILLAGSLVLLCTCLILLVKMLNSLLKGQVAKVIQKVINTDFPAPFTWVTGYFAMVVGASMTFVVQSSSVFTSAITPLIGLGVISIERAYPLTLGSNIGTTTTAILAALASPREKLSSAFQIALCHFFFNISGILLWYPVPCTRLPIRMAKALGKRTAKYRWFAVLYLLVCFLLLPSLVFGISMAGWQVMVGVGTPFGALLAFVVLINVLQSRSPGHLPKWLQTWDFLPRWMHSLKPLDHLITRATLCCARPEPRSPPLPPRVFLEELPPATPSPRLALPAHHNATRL
Summary of the method: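 Cells were doxycycline-induced CHO T-REx hNpt2a, dye-loaded and pretreated 5 min at RT with 1 nM–50 μM compound in Na-free pH 7.4 buffer. IC50 was fit to the post/pre-trigger fluorescence ratio.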
For `CCc1c(Nc2cc(-n3nc(C)c(C(=O)N4CCCC4C)c3C)ncn2)nn(C)c1-c1ccc(F)cc1` (single isomer, unassigned) [Example 106, [1-ent-(6-{[4-ethyl-5-(4-fluorophenyl)-1-methyl-1H-pyrazol-3-yl]amino}pyrimidin-4-yl)-3,5-dimethyl-1H-pyrazol-4-yl](2-methylpyrrolidin-1-yl)methanone], the IC50 was 120 nM.
`Cc1nn(-c2cc(Nc3c(C)c(-c4ccc(C#N)cc4)nn3C)ncn2)c(C)c1C(O)C(F)(F)F` (racemic) [Example 387, (±)-4-{5-[(6-{3,5-dimethyl-4-[2,2,2-trifluoro-1-hydroxyethyl]-1H-pyrazol-1-yl}pyrimidin-4-yl)amino]-1,4-dimethyl-1H-pyrazol-3-yl}benzonitrile] gave an IC50 of 70 nM.
With `Cc1nn(-c2cc(Nc3c(C)c(-c4ccc(C(F)(F)F)cc4)nn3C)ncn2)c(C)c1C(C)(C)O` [Example 379, 2-{1-[6-({1,4-dimethyl-3-[4-(trifluoromethyl)phenyl]-1H-pyrazol-5-yl}amino)pyrimidin-4-yl]-3,5-dimethyl-1H-pyrazol-4-yl}propan-2-ol] the IC50 was 880 nM.
For `COc1c(-c2ccc(C#N)cc2)nn(C)c1Nc1cc(-n2nc(C)c(CC(C)(C)O)c2C)ncn1` [Example 428, 4-[5-({6-[4-(2-hydroxy-2-methylpropyl)-3,5-dimethyl-1H-pyrazol-1-yl]pyrimidin-4-yl}amino)-4-methoxy-1-methyl-1H-pyrazol-3-yl]benzonitrile], the IC50 was 550 nM.
`COCc1c(C)nn(-c2cc(Nc3c(C)c(-c4ccc(F)cc4)nn3CC3CC3)ncn2)c1C` [Example 503, N-[1-(cyclopropylmethyl)-3-(4-fluorophenyl)-4-methyl-1H-pyrazol-5-yl]-6-[4-(methoxymethyl)-3,5-dimethyl-1H-pyrazol-1-yl]pyrimidin-4-amine] gave an IC50 of 4 nM.
Work on `Cc1nn(-c2cc(Nc3c(C)c(C45C6C7C4C4C5C6C74C#N)nn3CC3CC3)ncn2)c(C)c1Cl` (centres unmarked) [Example 513, 4-[5-{[6-(4-chloro-3,5-dimethyl-1H-pyrazol-1-yl)pyrimidin-4-yl]amino}-1-(cyclopropylmethyl)-4-methyl-1H-pyrazol-3-yl]cubane-1-carbonitrile] yielded an IC50 of 7 nM.
In the case of `Cc1nn(-c2cc(Nc3c(C)c(-c4ccc(F)cc4)nn3CC3CC3)ncn2)c(C)c1C(O)C(F)(F)F` (single isomer, unassigned) [Example 375, 1-[1-(6-{[1-(cyclopropylmethyl)-3-(4-fluorophenyl)-4-methyl-1H-pyrazol-5-yl]amino}pyrimidin-4-yl)-3,5-dimethyl-1H-pyrazol-4-yl]-2,2,2-trifluoroethanol], the IC50 is reported as 40 nM.
`CCOC(=O)c1c(C)nn(-c2cc(Nc3c(Cl)c(-c4ccc(C#N)cc4)nn3CC3CC3)ncn2)c1C` [Example 442, ethyl 1-(6-{[4-chloro-3-(4-cyanophenyl)-1-(cyclopropylmethyl)-1H-pyrazol-5-yl]amino}pyrimidin-4-yl)-3,5-dimethyl-1H-pyrazole-4-carboxylate] gave an IC50 of 8 nM.
In the case of `CCc1c(Nc2cc(-n3nc(C)c(CC4(O)CC4)c3C)ncn2)nn(C)c1-c1ccc(F)cc1` [Example 256, 1-{[1-(6-{[4-ethyl-5-(4-fluorophenyl)-1-methyl-1H-pyrazol-3-yl]amino}pyrimidin-4-yl)-3,5-dimethyl-1H-pyrazol-4-yl]methyl}cyclopropanol], the IC50 is reported as 35 nM.
With `CCNc1c(C)nn(-c2cc(Nc3c(C)c(-c4ccc(F)cc4)nn3CC3CC3)ncn2)c1C` [Example 501, N-[1-(cyclopropylmethyl)-3-(4-fluorophenyl)-4-methyl-1H-pyrazol-5-yl]-6-[4-(ethylamino)-3,5-dimethyl-1H-pyrazol-1-yl]pyrimidin-4-amine trifluoroacetate] the IC50 was 5 nM.
`COCCn1nc(-c2ccc(F)cc2)c(C)c1Nc1cc(-n2nc(C)c(Cl)c2C)ncn1` [Example 414, 6-(4-chloro-3,5-dimethyl-1H-pyrazol-1-yl)-N-[3-(4-fluorophenyl)-1-(2-methoxyethyl)-4-methyl-1H-pyrazol-5-yl]pyrimidin-4-amine] gave an IC50 of 3 nM.
Compound `CCOC(=O)c1c(C)nn(-c2cc(Nc3c(C)c(-c4ccc(F)cc4F)nn3C)ncn2)c1C` [Example 363, ethyl 1-(6-{[3-(2,4-difluorophenyl)-1,4-dimethyl-1H-pyrazol-5-yl]amino}pyrimidin-4-yl)-3,5-dimethyl-1H-pyrazole-4-carboxylate] has an IC50 of 150 nM.
Work on `CCc1c(Nc2cc(-n3nc(C)c(Cl)c3C(C)(C)O)ncn2)nn(C)c1-c1ccc(F)cc1` [Example 195, 2-[4-chloro-1-(6-{[4-ethyl-5-(4-fluorophenyl)-1-methyl-1H-pyrazol-3-yl]amino}pyrimidin-4-yl)-3-methyl-1H-pyrazol-5-yl]propan-2-ol] yielded an IC50 of 3 nM.
`COc1c(C)nn(-c2cc(Nc3nn(C)c(-c4ccc(C#N)cc4)c3C)ncn2)c1C` [Example 435, 4-(3-{[6-(4-methoxy-3,5-dimethyl-1H-pyrazol-1-yl)pyrimidin-4-yl]amino}-1,4-dimethyl-1H-pyrazol-5-yl)benzonitrile] gave an IC50 of 5 nM.
`COCCn1nc(-c2ccc(C(F)F)cc2)c(C)c1Nc1cc(-n2nc(C)cc2C)ncn1` [Example 536, N-{3-[4-(difluoromethyl)phenyl]-1-(2-methoxyethyl)-4-methyl-1H-pyrazol-5-yl}-6-(3,5-dimethyl-1H-pyrazol-1-yl)pyrimidin-4-amine] was tested, and the IC50 was 17 nM.
In the case of `CCc1c(Nc2cc(-n3nc(C)c(C(C)(C)O)c3C(F)F)ncn2)nn(C)c1-c1ccc(F)cc1` [Example 190, 2-[5-(difluoromethyl)-1-(6-{[4-ethyl-5-(4-fluorophenyl)-1-methyl-1H-pyrazol-3-yl]amino}pyrimidin-4-yl)-3-methyl-1H-pyrazol-4-yl]propan-2-ol], the IC50 is reported as 210 nM.
`CCc1c(Nc2cc(-n3nc(C)c4ncccc43)ncn2)nn(C)c1-c1ccc(F)cc1` [Example 223, N-[4-ethyl-5-(4-fluorophenyl)-1-methyl-1H-pyrazol-3-yl]-6-(3-methyl-1H-pyrazolo[4,3-b]pyridin-1-yl)pyrimidin-4-amine] was tested, and the IC50 was 36 nM.
`Cc1c(-c2ccc(F)cc2)nn(CC2CC2)c1Nc1cc(-n2[nH]c3c(c2=O)CCCC3)ncn1` [Example 416, 2-(6-{[1-(cyclopropylmethyl)-3-(4-fluorophenyl)-4-methyl-1H-pyrazol-5-yl]amino}pyrimidin-4-yl)-1,2,4,5,6,7-hexahydro-3H-indazol-3-one] showed an IC50 of 1150 nM.
`Cc1cc(C(F)F)n(-c2cc(Nc3c(C)c(-c4ccc(F)cn4)nn3C)ncn2)n1` [Example 465, 6-[5-(difluoromethyl)-3-methyl-1H-pyrazol-1-yl]-N-[3-(5-fluoropyridin-2-yl)-1,4-dimethyl-1H-pyrazol-5-yl]pyrimidin-4-amine] was tested, and the IC50 was 170 nM.
Compound `Cc1nn(-c2cc(Nc3nn(CC4CC4)c(-c4ccc(F)cc4)c3C)ncn2)c(C)c1Cl` [Example 170, 6-(4-chloro-3,5-dimethyl-1H-pyrazol-1-yl)-N-[1-(cyclopropylmethyl)-5-(4-fluorophenyl)-4-methyl-1H-pyrazol-3-yl]pyrimidin-4-amine] has an IC50 of 440 nM.
Compound `Cc1nn(-c2cc(Nc3nn(C)c(-c4ccc(C#N)cc4)c3C)ncn2)c(C)c1Cl` [Example 196, 4-(3-{[6-(4-chloro-3,5-dimethyl-1H-pyrazol-1-yl)pyrimidin-4-yl]amino}-1,4-dimethyl-1H-pyrazol-5-yl)benzonitrile] has an IC50 of 2 nM.
`Cc1nn(-c2cc(Nc3nn(C)c(-c4ccc(F)cc4)c3Cl)ncn2)c(C)c1C1(O)CC1` [Example 357, 1-[1-(6-{[4-chloro-5-(4-fluorophenyl)-1-methyl-1H-pyrazol-3-yl]amino}pyrimidin-4-yl)-3,5-dimethyl-1H-pyrazol-4-yl]cyclopropanol] was tested, and the IC50 was 32 nM.
`CCc1c(Nc2cc(-n3nc(C)c(C(=O)N4CCCCC4)c3C)ncn2)nn(C)c1-c1ccc(F)cc1` [Example 105, [1-(6-{[4-ethyl-5-(4-fluorophenyl)-1-methyl-1H-pyrazol-3-yl]amino}pyrimidin-4-yl)-3,5-dimethyl-1H-pyrazol-4-yl](piperidin-1-yl)methanone] gave an IC50 of 235 nM.
`CCc1c(Nc2cc(-n3nc(C)c(C4(O)COC4)c3C)ncn2)nn(C)c1-c1ccc(F)cc1` [Example 220, 3-[1-(6-{[4-ethyl-5-(4-fluorophenyl)-1-methyl-1H-pyrazol-3-yl]amino}pyrimidin-4-yl)-3,5-dimethyl-1H-pyrazol-4-yl]oxetan-3-ol] showed an IC50 of 320 nM.
`CCc1c(Nc2cc(-n3nc(C)c(CN4CC(F)C4)c3C)ncn2)nn(C)c1-c1ccc(F)cc1` [Example 296, N-[4-ethyl-5-(4-fluorophenyl)-1-methyl-1H-pyrazol-3-yl]-6-{4-[(3-fluoroazetidin-1-yl)methyl]-3,5-dimethyl-1H-pyrazol-1-yl}pyrimidin-4-amine] was tested, and the IC50 was 117 nM.
`CCOC(=O)c1c(C)nn(-c2cc(Nc3n[nH]c(-c4ccccc4)c3C)ncn2)c1C` [Example 16, ethyl 3,5-dimethyl-1-{6-[(4-methyl-5-phenyl-1H-pyrazol-3-yl)amino]pyrimidin-4-yl}-1H-pyrazole-4-carboxylate] showed an IC50 of 81 nM.
